Measurements as given in US10696691B2, “BACE1 inhibitors” (Hoffmann-La Roche Inc., priority 2015, dated 2020).

Columns and labels:
Aβ40 = assay: Lowering of Aβ40 in brain of wild-type mice; assay type: in vivo; conditions: female C57Bl/6J mice, 30 mg/kg per os, 4 h, brain Aβ40 as percentage of the vehicle group; for response vs control in vivo at 30 mg/kg: Mus musculus, po, read-out: Aβ40 (wt mice, brain)
Experimental: Lowering of Aβ40 in Brain of Wild-Type Mice:
Animals and Housing Conditions.
Animals were maintained in a 12/12 h light/dark cycle, with lights starting at 6 a.m., and experiments were conducted during the light phase, Animal housing and experimental procedures were in line with ethical and legal guidelines and were authorized by local veterinary authorities.
Female C57Bl/6J mice were treated with a dose of 30 mg/kg of the compounds, 3-4 animals per treatment group. The test compound was dissolved in 5% EtOH, 10% Solutol, and was applied per os at 10 mL/kg. After 4 h, the animals were sacrificed and brain and plasma were collected. The brain was cut into halves and immediately frozen on dry ice. Brain was used for measurement of Aβ40 and plasma was used for determination of compound exposure. […] Brain tissue was homogenized in 2% DEA buffer in a Roche MagnaLyser (20″, 4000 rpm) and subsequently centrifuged for 1 h at 100000 g. DEA was reduced to 0.2% in 50 mM NaCl and one-half of the DEA lysate was passed over an Oasis Solid phase extraction plate (Waters; cat. no. 186000679), which had been activated with MeOH and equilibrated in dH2O (1 mL each). After washes in 10% and 30% MeOH (1 mL each), the Aβ-peptides were eluted in 0.8 mL of 2% NH4OH in 90% MeOH. The eluate was dried over a N2 flow, and the dried sample was reconstituted in 30 μL of AlphaLISA assay buffer. Aβ40 was determined by an AlphaLISA assay (Perkin-Elmer). In a white 96-well, half area microplate (Perkin-Elmer cat. no. 6005561), 20 μL of the reconstituted sample were mixed with 5 μL of biotinylated BAP-24 (specific for C-terminus of Aβ40) (Brockhaus, M.; Onmberg, J.; Rohrig, S.; Loetscher, H.; Wittenburg, N.; Baumeister, R.; Jacobsen, H.; Haass, C. Caspasemediated cleavage is not required for the activity of presenilins in amyloidogenesis and NOTCH signaling. NeuroReport 1998, 9, 1481-1486.) stock=4.4 mg/mL, f.c.5.5 μg/mL), and 5 μL 252Q6 acceptor beads (252Q6 antibody, Invitrogen AMB0062) had been previously conjugated with AlphaLISA Acceptor beads (Perkin-Elmer cat. no. 6772002); final dilution 1:500). The mix was incubated for 1 h at RT in the dark. Then 20 μL of Streptavin-coated Donor Beads (Perkin-Elmer cat. no. 6760002, final dilution 1:125) were added and this final mix was incubated in the dark for another 30 min at RT before RFU was measured in an AlphaScreen Reader (Perkin-Elmer Envision 2104). The value obtained for A40 in the treated animals was related to the value in the vehicle group and is given in %. Alternatively a commercial ELISA was used for Aβ40 determination (Wako ELISA: (“Human/Rat 3 Amyloid (40) ELISA kit Wako II”; cat nr. 294-64701) following the manufacture's instruction. Also here the Aβ-lowering efficacy was calculated as percentage of the vehicle group.

BACE1 = molecular target: T1, BACE1 (Homo sapiens, UniProt P56817); assay: Cellular Aβ-lowering assay (Abeta 40 AlphaLISA, HEK293 APP cells); assay type: cell-based; conditions: 18-20 hrs incubation, Aβ 40 in culture supernatants, read-out: BACE1 cell act. Aβ40 IC50
T1 construct: endogenous in cells; host or cells: HEK293 APP cells
Experimental: Cellular Aβ-Lowering Assay:
The Abeta 40 AiphaLISA Assay can be used. The HEK293 APP cells were seeded in 96 well Microtiter plates in cell culture medium (Iscove's, plus 10% (v/v) fetal bovine serum, penicillin/streptomycin) to about 80% confluency and the compounds were added at a 3× concentration in ⅓ volume of culture medium (final DMSO concentration was kept at 1% v/v). After 18-20 hrs incubation at 37° C. and 5% CO2 in a humidified incubator, the culture supernatants were harvested for the determination of Aβ 40 concentrations using Perkin-Elmer Human Amyloid beta 1-40 (high specificity) Kit (Cat # AL275C).
In a Perkin-Elmer White Optiplate-384 (Cat #6007290), 2 ul culture supernatants were combined with 2 μl of a 10× AlphaLISA Anti-hABAcceptor beads+Biotinylated Antibody Anti-AD 1-40 Mix (50 μg/mL/5 nM). After 1 hour room temperature incubation, 16 μl of a 1.25× preparation of Streptavidin (SA) Donor beads (25 μg/mL) were added and incubated for 30 minutes in the Dark. Light Emission at 615 nm was then recorded using EnVision-Alpha Reader. Levels of Aβ 40 in the culture supernatants were calculated as percentage of maximum signal (cells treated with 1% DMSO without inhibitor). The IC50 values were calculated using the Excel XLfit software.

T1 sequence (P56817 46-501): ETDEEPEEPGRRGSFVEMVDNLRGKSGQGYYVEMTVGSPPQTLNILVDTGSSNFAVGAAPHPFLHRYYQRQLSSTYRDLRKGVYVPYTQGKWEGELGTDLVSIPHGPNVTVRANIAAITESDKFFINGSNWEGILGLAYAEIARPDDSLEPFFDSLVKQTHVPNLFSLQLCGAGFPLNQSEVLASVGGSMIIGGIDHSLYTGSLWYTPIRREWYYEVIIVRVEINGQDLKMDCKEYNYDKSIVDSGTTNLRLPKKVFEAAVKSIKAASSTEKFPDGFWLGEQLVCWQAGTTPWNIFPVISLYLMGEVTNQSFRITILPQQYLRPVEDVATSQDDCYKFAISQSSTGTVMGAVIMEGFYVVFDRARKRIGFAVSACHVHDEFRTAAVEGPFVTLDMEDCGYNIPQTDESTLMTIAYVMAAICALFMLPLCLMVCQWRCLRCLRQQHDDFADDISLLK

| SMILES | response vs control in vivo at 30 mg/kg (Aβ40) [%] | IC50 (BACE1) [nM] | Aβ40 (wt mice, brain) (Aβ40) [%] |
| --- | --- | --- | --- |
| CC1(C)C(N)=N[C@](C)(c2cc(NC(=O)c3ncc(Cl)cc3Cl)ccc2F)[C@@H]2CCN=[S@@]21=O [Example 3AB, N-(3-((3aS,4R,8R)-6-amino-4,7,7-trimethyl-8-oxido-3,3a,4,7-tetrahydro-2H-isothiazolo[1,5-a][1,4]thiazin-4-yl)-4-fluorophenyl)-3,5-dichloropicolinamide] | 49 | 1 | – |
| CC1(C)C(N)=N[C@](C)(c2cc(NC(=O)c3ccc(C#N)cc3Cl)ccc2F)[C@@H]2CCN=[S@@]21=O [Example 4AB, N-(3-((3aS,4R,8R)-6-amino-4,7,7-trimethyl-8-oxido-3,3a,4,7-tetrahydro-2H-isothiazolo[1,5-a][1,4]thiazin-4-yl)-4-fluorophenyl)-2-chloro-4-cyanobenzamide] | 102 | 13.1 | – |
| CC1(C)C(N)=N[C@](C)(c2cc(NC(=O)c3cnc(OCC(F)F)cn3)ccc2F)[C@@H]2CCN=[S@@]21=O [Example 7AB, N-(3-((3aS,4R,8R)-6-amino-4,7,7-trimethyl-8-oxido-3,3a,4,7-tetrahydro-2H-isothiazolo[1,5-a][1,4]thiazin-4-yl)-4-fluorophenyl)-5-(2,2-difluoroethoxy)pyrazine-2-carboxamide] | 42 | 0.4 | – |
| CC1(C)C(N)=N[C@](C)(c2cc(NC(=O)c3ncc(OC(F)F)cc3Cl)ccc2F)[C@@H]2CCN=[S@@]21=O [Example 13AB, N-(3-((3aS,4R,8R)-6-amino-4,7,7-trimethyl-8-oxido-3,3a,4,7-tetrahydro-2H-isothiazolo[1,5-a][1,4]thiazin-4-yl)-4-fluorophenyl)-3-chloro-5-(difluoromethoxy)picolinamide] | 39 | 0.3 | – |
| COc1cnc(C(=O)Nc2ccc(F)c([C@@]3(C)N=C(N)C(C)(C)[S@@]4(=O)=NCC[C@@H]34)c2)cn1 [Example 14AB, N-(3-((3aS,4R,8R)-6-amino-4,7,7-trimethyl-8-oxido-3,3a,4,7-tetrahydro-2H-isothiazolo[1,5-a][1,4]thiazin-4-yl)-4-fluorophenyl)-5-methoxypyrazine-2-carboxamide] | 3 | 0.5 | – |
| CC1(C)C(N)=N[C@](C)(c2cc(NC(=O)c3cnc(OC(F)F)cn3)ccc2F)[C@@H]2CCN=[S@@]21=O [Example 15AB, N-(3-((3aS,4R,8R)-6-amino-4,7,7-trimethyl-8-oxido-3,3a,4,7-tetrahydro-2H-isothiazolo[1,5-a][1,4]thiazin-4-yl)-4-fluorophenyl)-5-(difluoromethoxy)pyrazine-2-carboxamide] | 20 | 0.2 | – |
| CC1(C)C(N)=N[C@](C)(c2cc(NC(=O)c3ccc(F)cn3)ccc2F)[C@@H]2CCN=[S@@]21=O [Example 17AB, N-(3-((3aS,4R,8R)-6-amino-4,7,7-trimethyl-8-oxido-3,3a,4,7-tetrahydro-2H-isothiazolo[1,5-a][1,4]thiazin-4-yl)-4-fluorophenyl)-5-fluoropicolinamide] | 40 | 0.3 | – |
| CC1(C)C(N)=N[C@](C)(c2cc(NC(=O)c3cnc(OCC(F)(F)C(F)F)cn3)ccc2F)[C@@H]2CCN=[S@@]21=O [Example 22AB, N-(3-((3aS,4R,8R)-6-amino-4,7,7-trimethyl-8-oxido-3,3a,4,7-tetrahydro-2H-isothiazolo[1,5-a][1,4]thiazin-4-yl)-4-fluorophenyl)-5-(2,2,3,3-tetrafluoropropoxy)pyrazine-2-carboxamide] | – | 0.2 | 51 |
| CCOc1ccc(C(=O)Nc2ccc(F)c([C@@]3(C)N=C(N)C(C)(C)[S@@]4(=O)=NCC[C@@H]34)c2)nc1 [Example 25AB, N-(3-((3aS,4R,8R)-6-amino-4,7,7-trimethyl-8-oxido-3,3a,4,7-tetrahydro-2H-isothiazolo[1,5-a][1,4]thiazin-4-yl)-4-fluorophenyl)-5-ethoxypicolinamide] | 40 | 0.5 | – |
| COc1cnc(C(=O)Nc2ccc(F)c([C@@]3(C)N=C(N)C(C)(C)[S@@]4(=O)=NCC[C@@H]34)c2)c(C)c1 [Example 26AB, N-(3-((3aS,4R,8R)-6-amino-4,7,7-trimethyl-8-oxido-3,3a,4,7-tetrahydro-2H-isothiazolo[1,5-a][1,4]thiazin-4-yl)-4-fluorophenyl)-5-methoxy-3-methylpicolinamide] | 11 | 0.6 | – |
| CCOc1cnc(C(=O)Nc2ccc(F)c([C@@]3(C)N=C(N)C(C)(C)[S@@]4(=O)=NCC[C@@H]34)c2)cn1 [Example 27AB, N-(3-((3aS,4R,8R)-6-amino-4,7,7-trimethyl-8-oxido-3,3a,4,7-tetrahydro-2H-isothiazolo[1,5-a][1,4]thiazin-4-yl)-4-fluorophenyl)-5-ethoxypyrazine-2-carboxamide] | 9 | 0.4 | – |
